This passage reports IC50 results from patent publication US11827628B2, “Compositions and methods for inhibition of the JAK pathway” (Rigel Pharmaceuticals, Inc., priority 2005, dated 2023).

Test [1] relates to IL-4 stimulated expression of CD23 in human Ramos B cells (JAK-1 and JAK-3). The experiment in a line: Assay for Ramos B-Cell Line Stimulated with IL-4 (CD23 upregulation, FACS). The format is cell-based. As to conditions: Ramos B-cell line stimulated with IL-4; CD23 expression by FACS; read-out: IC50, Example 41. The method in brief:
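Read-out: anti-CD23-PE flow cytometry on Ramos B cells, giving IC50. Cells (5×10^4 per point, RPMI + 5% serum) get compound or DMSO for 1 h at 37 °C, then IL-4 50 units/mL final for 20-24 h.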
On the technique in general: Flow cytometry measures light scatter and fluorescence of single cells or particles in a stream.

Test [2] relates to up-regulation of ICAM-1 (CD54) by IFNγ in U937 human monocytic cells. Put plainly: U937 IFNγ ICAM1 FACS Assay. The format is cell-based. As to conditions: U937 cells stimulated with IFNγ; ICAM-1 expression by FACS; read-out: IC50, Example 44. The method in brief:
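U937 cells in 10% FCS RPMI were preincubated 30 min at 37 °C with an 8-point, 3-fold compound dilution series in duplicate, then stimulated with IFNγ for 18–24 h. Surface ICAM-1 was stained with APC anti-ICAM-1 and read by flow cytometry as geometric mean on live-gated cells. EC50 was derived.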

One may read the IC50 as the midpoint of a concentration-inhibition curve. `Cc1noc(COc2ccc(Nc3nc(Nc4cc(C)c(Cl)c(S(N)(=O)=O)c4)ncc3F)cc2)n1` [Compound I-265, N2-(3-Aminosulfonyl-4-chloro-5-methylphenyl)-5-fluoro-N4-[4-(3-methyl-1,2,4-oxadiazol-5-yl)methyleneoxyphenyl]-2,4-pyrimidinediamine]: the values for the IC50 in test [1] and in test [2] were 42.3 nM and 415 nM, respectively.
For `Cc1noc(COc2ccc(Nc3nc(Nc4ccc(F)c(S(N)(=O)=O)c4)ncc3F)cc2)n1` [Compound I-266, N2-(3-Aminosulfonyl-4-fluorophenyl)-5-fluoro-N4-[4-(3-methyl-1,2,4-oxadiazol-5-yl)methyleneoxyphenyl]-2,4-pyrimidinediamine] the same measures were 85.1 nM and 824 nM.
Take `Cc1noc(CCc2ccc(Nc3nc(Nc4ccc(F)c(S(N)(=O)=O)c4)ncc3F)cc2)n1` [Compound I-267, N2-(3-Aminosulfonyl-4-fluorophenyl)-5-fluoro-N4-[4-(3-methyl-1,2,4-oxadiazol-5-yl)ethylenephenyl]-2,4-pyrimidinediamine]: the IC50 in test [1] is 328 nM; in test [2], 5070 nM.
For `Cc1noc(COc2ccc(Nc3nc(Nc4ccc(S(N)(=O)=O)cc4)ncc3F)cc2)n1` [Compound I-268, N2-(4-Aminosulfonylphenyl)-5-fluoro-N4-(4-[3-methyl-1,2,4-oxadiazol-5-yl]methyleneoxyphenyl)-2,4-pyrimidinediamine] the same measures were 60.7 nM and 219 nM.
For `Cc1nc(COc2ccc(Nc3nc(Nc4ccc(S(N)(=O)=O)cc4)ncc3F)cc2)no1` [Compound I-275, N2-(4-Aminosulfonyl)phenyl-5-fluoro-N4-[4-(5-methyl-1,2,4-oxadiazol-3-yl)methoxy]phenyl-2,4-pyrimidinediamine] the same measures were 223 nM and 1900 nM.
The matching figures for `Cc1nc(COc2ccc(Nc3nc(Nc4cccc(S(N)(=O)=O)c4)ncc3F)cc2)no1` [Compound I-276, N2-(3-Aminosulfonyl)phenyl-5-fluoro-N4-[4-(5-methyl-1,2,4-oxadiazol-3-yl)methoxy]phenyl-2,4-pyrimidinediamine]: 135 nM and 822 nM.
As for `Cc1nnc(COc2ccc(Nc3nc(Nc4cccc(S(N)(=O)=O)c4)ncc3F)cc2)o1` [Compound I-277, N2-(3-aminosulfonylphenyl)-5-fluoro-N4-[4-(5-methyl-1,3,4-oxadiazol-2-yl)methyleneoxyphenyl]-2,4-pyrimidinediamine], the IC50 in test [1] was found to be 151 nM; in test [2], 1470 nM.
The matching figures for `Cc1nnc(COc2ccc(Nc3nc(Nc4ccc(F)c(S(N)(=O)=O)c4)ncc3F)cc2)o1` [Compound I-278, N2-(3-Aminosulfonyl-4-fluorophenyl)-5-fluoro-N4-[4-(5-methyl-1,3,4-oxadiazol-2-yl)methyleneoxyphenyl]-2,4-pyrimidinediamine]: 193 nM and 2270 nM.
For `Cc1nc(COc2ccc(Nc3nc(Nc4ccc(C)c(S(N)(=O)=O)c4)ncc3F)cc2)cs1` [Compound I-280, N2-(3-Aminosulfonyl-4-methylphenyl)-5-fluoro-N4-[4-(2-methylthiazol-4-yl)methyleneoxyphenyl]-2,4-pyrimidinediamine] the same measures were 145 nM and 1460 nM.
`Cc1nc(COc2ccc(Nc3nc(Nc4cccc(S(N)(=O)=O)c4)ncc3F)cc2)cs1` [Compound I-281, N2-(3-Aminosulfonylphenyl)-5-fluoro-N4-[4-(2-methylthiazol-4-yl)methyleneoxyphenyl]-2,4-pyrimidinediamine]: the IC50 in test [1] was determined as 93.2 nM; in test [2], 975 nM.
As for `CNS(=O)(=O)c1cc(Nc2ncc(F)c(Nc3ccc(OCc4csc(C)n4)cc3)n2)ccc1C` [Compound I-282, 5-Fluoro-N2-[3-(N-methylaminosulfony)-4-methylphenyl]-N4-[4-(2-methylthiazol-4-yl)methyleneoxyphenyl]-2,4-pyrimidinediamine], the IC50 in test [1] came to 339 nM; in test [2], 3100 nM.
The matching figures for `CCN(CC)CCNS(=O)(=O)c1cccc(Nc2ncc(F)c(Nc3ccc(OCc4csc(C)n4)cc3)n2)c1` [Compound I-283, N2-[3-(2-N,N-Diethylaminoethyl)aminosulfonylphenyl)-5-fluoro-N4-[4-(2-methylthizol-4-yl)methyleneoxyphenyl]-2,4-pyrimidinediamine]: 518 nM and 2940 nM.
For `CCN(CC)CCNS(=O)(=O)c1ccc(Nc2ncc(F)c(Nc3ccc(OCc4csc(C)n4)cc3)n2)cc1` [Compound I-284, N2-[4-(2-N,N-Diethylaminoethyl)aminosulfonylphenyl)-5-fluoro-N4-[4-(2-methylthizol-4-yl)methyleneoxyphenyl]-2,4-pyrimidinediamine] the same measures were 136 nM and 1550 nM.
The matching figures for `Cc1nc(COc2ccc(Nc3nc(Nc4ccc(S(N)(=O)=O)cc4)ncc3F)cc2)cs1` [Compound I-285, N2-(4-Aminosulfonylphenyl)-5-fluoro-N4-[4-(2-methylthiazol-4-yl)methyleneoxyphenyl]-2,4-pyrimidinediamine]: 133 nM and 1480 nM.
Regarding `CN1CCC(Oc2ccc(Nc3nc(Nc4cccc(S(N)(=O)=O)c4)ncc3F)cc2)C1` (centres unmarked) [II-9, N2-(3-Aminosulfonylphenyl)-5-fluoro-N4-(N-methylpyrrolidin-3-yloxyphenyl)-2,4-pyrimidinediamine], the IC50 stood at 232 nM in test [1] and 2720 nM in test [2].
For `Cc1ccc(Nc2ncc(F)c(Nc3ccc(OC4CCN(C)C4)cc3)n2)cc1S(N)(=O)=O` (centres unmarked) [II-10, N2-(3-Aminosulfonyl-4-methylphenyl)-5-fluoro-N4-(N-methylpyrrolidin-3-yloxyphenyl)-2,4-pyrimidinediamine] the same measures were 369 nM and 1400 nM.
The matching figures for `CNS(=O)(=O)c1cc(Nc2ncc(F)c(Nc3ccc(CC#N)cc3)n2)ccc1C` [III-1, 5-Fluoro-N2-[3-(N-methylaminosulfony)-4-methylphenyl]-5-fluoro-N4-(4-cyanomethylphenyl)-2,4-pyrimidinediamine]: 151 nM and 1120 nM.
In the case of `CCN(CC)CCNS(=O)(=O)c1ccc(Nc2ncc(F)c(Nc3ccc(CC#N)cc3)n2)cc1` [III-2, N2-[4-(2-N,N-Diethylaminoethyl)aminosulfonylphenyl)-5-fluoro-N4-(4-cyanomethylphenyl)-2,4-pyrimidinediamine], the IC50 is 224 nM in test [1] and 6720 nM in test [2].
For `N#CCc1ccc(Nc2nc(Nc3cccc(S(N)(=O)=O)c3)ncc2F)cc1` [III-4, N2-(3-Aminosulfonyl)phenyl-N4-(4-cyanomethyl)phenyl-5-fluoro-2,4-pyrimidinediamine] the same measures were 18.7 nM and 1720 nM.
The matching figures for `Cc1ccc(Nc2ncc(F)c(Nc3ccc(CC#N)cc3)n2)cc1S(N)(=O)=O` [III-7, N2-(3-Aminosulfonyl-4-methyl)phenyl-N4-(4-cyanomethyl)phenyl-5-fluoro-2,4-pyrimidinediamine]: 85.1 nM and 1090 nM.
On to `N#CCc1ccc(Nc2nc(Nc3ccc(Cl)c(S(N)(=O)=O)c3)ncc2F)cc1` [III-8, N2-(3-Aminosulfonyl-4-chloro)phenyl-N4-(4-cyanomethyl)phenyl-5-fluoro-2,4-pyrimidinediamine], for which the IC50 in test [1] stood at 138 nM; in test [2] it was 2250 nM.
Regarding `COc1cc(Nc2ncc(F)c(Nc3ccc(CC#N)cc3)n2)ccc1S(N)(=O)=O` [III-9, N2-(4-Aminosulfonyl-3-methoxy)phenyl-N4-(4-cyanomethyl)phenyl-5-fluoro-2,4-pyrimidinediamine], the IC50 in test [1] stood at 215 nM; in test [2], 6980 nM.
The matching figures for `N#CCc1ccc(Nc2nc(Nc3ccc(F)c(S(N)(=O)=O)c3)ncc2F)cc1` [III-10, N2-(3-Aminosulfonyl-4-fluoro)phenyl-N4-(4-cyanomethyl)phenyl-5-fluoro-2,4-pyrimidinediamine]: 225 nM and 3520 nM.
As to `Cc1ccc(Nc2ncc(C)c(Nc3ccc(CCC#N)cc3)n2)cc1S(N)(=O)=O` [III-11], the IC50 in test [1] stood at 64.2 nM; in test [2], 168 nM.
The matching figures for `N#CCCc1ccc(Nc2nc(Nc3cccc(S(N)(=O)=O)c3)ncc2F)cc1` [III-14, N2-(3-aminosulfonylphenyl)-N4-[4-(cyanoethylene)phenyl]-5-fluoro-2,4-pyrimidinediamine]: 140 nM and 585 nM.
Consider `Cc1ccc(Nc2ncc(F)c(Nc3ccc(CCC#N)cc3)n2)cc1S(N)(=O)=O` [III-15, N2-(3-Aminosulfonyl-4-methylphenyl)-N4-[4-(cyanoethylene)phenyl]-5-fluoro-2,4-pyrimidinediamine], for which the values for the IC50 in test [1] and in test [2] were 76 nM and 553 nM, respectively.
The matching figures for `N#CCCc1ccc(Nc2nc(Nc3ccc(F)c(S(N)(=O)=O)c3)ncc2F)cc1` [III-16, N2-(3-Aminosulfonyl-4-fluorophenyl)-N4-[4-(cyanoethylene)phenyl]-5-fluoro-2,4-pyrimidinediamine]: 273 nM and 1800 nM.
The matching figures for `Cc1cnc(Nc2ccc(S(N)(=O)=O)cc2)nc1Nc1ccc(CCC#N)cc1` [III-27, N2-(4-Aminosulfonylphenyl)-N4-(4-cyanoethylenephenyl)-5-methyl-2,4-pyrimidinediamine]: 58.3 nM and 257 nM.
